Data as given in a melting point compilation (Tetko et al.).

| melting point [°C] | SMILES |
| --- | --- |
| 195 to 197 | CCOc1ccc(C=CC(=O)O)cc1 |
| 141 | O=c1ccoc2ccc(Br)cc12 |
| 38 | Cc1ccc(C(F)(F)F)cc1N |
| 63 | COC(=O)c1cc(Br)cc(Br)c1 |
| 164 | O=C(C(=O)c1ccco1)c1ccco1 |
| 248 | O=C(O)Cn1c(C(F)(F)F)nc2ccccc21 |
| 65 | COc1cc(C)c(C=O)c(OC)c1 |
| 78 to 79 | Cc1nc(-c2ccc(Br)s2)cs1 |
| 258 to 260 | O=C(O)Cn1ccnc1 |
| 77.5 | COc1cc(Cl)c(Cl)cc1Cl |
| 117 to 118 | COC(=O)c1ccc(-c2cccs2)nc1 |
| 42 | ClCc1nc(-c2ccccc2)no1 |
| 76 | Fc1nccc(Br)c1Br |
| 89 to 90 | Cc1cc2nsnc2cc1C |
| 177 to 178 | O=C(O)C=Cc1ccc(Sc2ccccn2)c([N+](=O)[O-])c1 |
| 155 to 156 | Cc1nc(N)ccc1C#N |
| 256 | Cc1n[nH]c(C)c1-c1ccccc1C(=O)O |
| -10 | Brc1cccs1 |
| 32 | Oc1c(F)cc(Br)cc1Br |
| 128 | Brc1cccc2cn[nH]c12 |
| 168 to 170 | CSc1nsc(SC)c1C(=O)Nc1ccc(Cl)cc1 |
| 67 to 69 | Cc1nc(-c2ccc(CO)s2)cs1 |
| 18.7 | COC(=O)c1ccccn1 |
| 56 to 57 | OCc1ccc(-c2ccco2)s1 |
| 34 to 42 | COC(=O)CC(=O)c1cccnc1 |
| 124 to 127 | CC(=O)N1CCc2cc(Br)ccc21 |

More lines, now with the values behind:

| SMILES | melting point [°C] |
| --- | --- |
| CN(C)c1ccc(P(=O)(c2ccc(N(C)C)cc2)c2ccc(N(C)C)cc2)cc1 | 275 to 280 |
| CNc1c(F)c(F)c(-c2c(F)c(F)c(F)c(F)c2F)c(F)c1F | 72 |
| Cc1ccc(S(=O)(=O)n2cc(C=O)c3ccccc32)cc1 | 138 to 140 |
| Cc1cc(C)c(N=C=S)c(C)c1 | 63 to 64 |
| N#Cc1ccccc1CCl | 61 |
| ClCc1cccc2ccccc12 | 32 |
| CCC(C(=O)C=Cc1ccccc1)C(=O)OC1CC(C)CCC1C(C)C (stereo unspecified) | 135 |
| C=CC(=O)NC(C)C | 64 |
| O=C(O)CC1CCCC1 | 12 |
| CCNc1ccc([N+](=O)[O-])cc1[N+](=O)[O-] | 108 to 119 |
| NS(=O)(=O)c1ccc(N2CCCCS2(=O)=O)cc1 | 180 |
| CC(C)=CCNC(=N)N | 62.5 |
| COc1cc(C(=O)NCCCCCC(=O)O)cc(OC)c1OC | 121 |
| CC1(C)C2CCC1(CS(=O)(=O)Cl)C(=O)C2 (stereo unspecified) | 66 |
| COc1ccc(OC2OC(CO)C(O)C(O)C2O)cc1 (stereo unspecified) | 159 |
| O=c1[nH]c(=O)n(C2CC(O)C(CO)O2)cc1C(F)(F)F (stereo unspecified) | 188 |
| CCCCCC(=O)c1ccc(O)cc1O | 57 |
| O=C(O)[C@H]1[C@H](C(=O)O)[C@H]2C=C[C@@H]1C2 | 185 |
| C#CCCCCCCCCCC | -19 |
| COc1cc(Cl)nc(OC)n1 | 74 to 76 |
| O=[N+]([O-])c1ccccc1/C=C/c1ccccc1 | 73 |
| C=CC(CO)N1C(=O)c2ccccc2C1=O (stereo unspecified) | 62.2 |
| CC(C)(C)OC(=O)CC(=O)OC(C)(C)C | -6 |
| C=CCOC(=O)N1CCN(C(=O)OCC2c3ccccc3-c3ccccc32)C(C(=O)O)C1 (stereo unspecified) | 63 |
| COc1ccc(OC)c(C=C[N+](=O)[O-])c1 | 114 to 119 |
| CCC1(CC)C(=O)C=CNC1=O | 90.7 |
| Clc1cc2c(cc1Cl)Oc1ccccc1O2 | 163 |
| COc1cc(OC)c(Cl)cc1N | 89 to 92 |
| CC(C)C(C)(C)C | -25 |
| CN1CSCSC1 | 65 |
